Measurements: patent publication US11046716B2, “Beta-lactamase inhibitors” (priority 2015, dated 2021)

Legend:
SHV-5 = biological target: T1, SHV-5 (Klebsiella pneumoniae, UniProt P0A3M1); test: β-lactamase enzyme inhibition assay, SHV-5 (cefotaxime substrate); assay type: biochemical
T1 construct: made in house; host or cells: E. coli BL21(DE3)
Outline: (§1)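 Native untagged enzymes expressed in E. coli BL21(DE3), purified by cation exchange and gel filtration. Inhibitor preincubated with enzyme 15 min at 37 °C; hydrolysis followed by absorbance: imipenem at 300 nm for KPC-2, cefotaxime at 260 nm for SHV-5. IC50 as concentration halving initial hydrolysis rate versus inhibitor-free wells.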

KPC-2 = biological target: T2, KPC-2 (Klebsiella pneumoniae, UniProt Q9F663); test: β-lactamase enzyme inhibition assay, KPC-2 (imipenem substrate); assay type: biochemical; conditions: Class A; imipenem substrate, 300 nm; read-out: KPC-2
T2 construct: made in house; host or cells: E. coli BL21(DE3)
Outline: as §1

[1] = system: K. pneumoniae expressing the class A carbapenemase KPC-2 and the class B carbapenemase VIM-4; test: Broth microdilution MIC assay with meropenem, K. pneumoniae KPC-2 and VIM-4; assay type: cell-based; conditions: Fixed Mero (meropenem) 4 μg/mL; K. p. A-1797 KPC-2 VIM-4
Outline: (§2)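 Potentiation format: the β-lactam was held at 4 μg/ml while the test compound was serially diluted, and growth was scored visually after overnight (16-20 h) incubation at 37° C.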

OXA-48 = OXA-48 (UniProt Q6XEC0); test: β-lactamase enzyme inhibition assay, Class D oxacillinase; assay type: biochemical; conditions: read-out: OXA-48
[2] = system: E. cloacae expressing the Class C P99; test: Broth microdilution MIC assay with ceftazidime, E. cloacae P99; assay type: cell-based; conditions: Fixed CAZ (ceftazidime) 4 μg/mL; E. cl. 144200 p99 AmpC
From the text: To determine the ability of test compounds to potentiate the inhibition of the growth of bacterial strains that produce beta-lactamase enzymes in the presence of a β-lactam antibiotic, classic cell based broth microdilution MIC assays were employed. Six bacteria strains producing beta-lactamase enzymes were used: E. coli expressing the Class A Extended Spectrum Beta-Lactamase (ESBL) CTX-M-15, E. cloacae expressing the Class C P99, K. pneumoniae expressing the Class A carbapenemase KPC-2, P. aeruginosa expressing the Class B carbapenemase VIM-2, K. pneumoniae expressing the class A carbapenemase KPC-2 and the class B carbapenemase VIM-4, and K. pneumoniae producing the Class D carbapenemase OXA-48. The assay was conducted in Cation Adjusted Mueller Hinton Broth (CAMHB, BD #212322, BD Diagnostic Systems, Sparks, Md.). Bacteria strains were grown for 3-5 hours in CAMBH broth. Test compounds (Examples 1-94) were added to a microtiter plate in 2-fold serial dilutions in CAMHB in a final concentration range of 16 μg/mL to 0.125 μg/ml. An overlay of CAMHB containing a Beta-lactam was added to the compounds at a final static concentration of 4 μg/ml. […] In addition to the titration of test compounds the MICs of a panel of control beta-lactams is also tested to ensure the strains are behaving consistently from test to test. Once the test compound and antibiotics are added the plates can be inoculated according to CLSI broth microdilution method. After inoculation the plates are incubated for 16-20 hours at 37° C. then the Minimal Inhibitory Concentration (MIC) of the test compound is determined visually.
Using the methodology described above, examples of the current invention were evaluated for their ability to inhibit the growth of β-lactamase-producing bacteria in the presence of a β-lactam antibiotic.

VIM-2 = biological target: T3, VIM-2 (Escherichia coli, UniProt Q5U7L7); test: β-lactamase enzyme inhibition assay, VIM-2 (nitrocefin substrate); assay type: biochemical; conditions: Class B; nitrocefin substrate, 486 nm; read-out: VIM-2
T3 construct: made in house; host or cells: E. coli BL21(DE3)
Outline: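 IC50 reflects the inhibitor concentration cutting the initial nitrocefin hydrolysis rate by half, compared with control wells lacking inhibitor. Substrate was used at 100 μM final after a 15 min, 37 °C enzyme–inhibitor preincubation.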

AmpC = biological target: T4, AmpC (Enterobacter cloacae, UniProt P05364); test: β-lactamase enzyme inhibition assay, p99 AmpC (nitrocefin substrate); assay type: biochemical
T4 construct: made in house; host or cells: E. coli BL21(DE3)
Outline: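 Native untagged enzymes expressed in E. coli BL21(DE3), purified by cation exchange and gel filtration. Inhibitor preincubated with enzyme 15 min at 37 °C; hydrolysis followed by absorbance. IC50 as concentration halving initial hydrolysis rate versus inhibitor-free wells.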

[3] = system: E. coli expressing the Class A Extended Spectrum Beta-Lactamase (ESBL) CTX-M-15; test: Broth microdilution MIC assay with ceftazidime, E. coli CTX-M-15; assay type: cell-based; conditions: Fixed CAZ (ceftazidime) 4 μg/mL; E. coli ESBL4 CTX-M-15
Outline: as §2

[4] = system: K. pneumoniae expressing the Class A carbapenemase KPC-2; test: Broth microdilution MIC assay with meropenem, K. pneumoniae KPC-2; assay type: cell-based; conditions: Fixed Mero (meropenem) 4 μg/mL; K. p. 156319 KPC-3
Outline: as §2

[5] = system: K. pneumoniae producing the Class D carbapenemase OXA-48; test: Broth microdilution MIC assay with meropenem, K. pneumoniae OXA-48; assay type: cell-based; conditions: Fixed Mero (meropenem) 4 μg/mL; K. p. 11978 OXA-48
Outline: as §2

[6] = system: P. aeruginosa expressing the Class B carbapenemase VIM-2; test: Broth microdilution MIC assay with meropenem, P. aeruginosa VIM-2; assay type: cell-based; conditions: Fixed Mero (meropenem) 4 μg/mL; P. aerug. 2775 VIM-2
Outline: as §2

T4 sequence (P05364 21-381): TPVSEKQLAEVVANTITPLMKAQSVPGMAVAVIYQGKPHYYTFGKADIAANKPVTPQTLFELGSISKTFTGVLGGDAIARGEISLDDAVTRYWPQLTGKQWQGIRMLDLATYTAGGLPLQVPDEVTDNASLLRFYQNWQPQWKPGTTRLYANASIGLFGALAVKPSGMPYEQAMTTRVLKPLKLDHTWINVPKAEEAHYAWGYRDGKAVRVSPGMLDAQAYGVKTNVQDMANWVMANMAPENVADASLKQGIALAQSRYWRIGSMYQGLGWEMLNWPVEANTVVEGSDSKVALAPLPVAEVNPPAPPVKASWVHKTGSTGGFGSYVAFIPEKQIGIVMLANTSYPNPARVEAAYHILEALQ
T1 sequence (P0A3M1 22-286): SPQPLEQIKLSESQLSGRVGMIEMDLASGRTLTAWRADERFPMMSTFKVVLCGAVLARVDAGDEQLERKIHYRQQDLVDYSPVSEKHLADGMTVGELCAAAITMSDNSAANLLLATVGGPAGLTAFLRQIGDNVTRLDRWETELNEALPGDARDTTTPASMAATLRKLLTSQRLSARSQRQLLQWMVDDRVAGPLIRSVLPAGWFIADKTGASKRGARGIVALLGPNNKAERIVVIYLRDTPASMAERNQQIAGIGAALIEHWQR
T2 sequence (Q9F663 25-293, looked up): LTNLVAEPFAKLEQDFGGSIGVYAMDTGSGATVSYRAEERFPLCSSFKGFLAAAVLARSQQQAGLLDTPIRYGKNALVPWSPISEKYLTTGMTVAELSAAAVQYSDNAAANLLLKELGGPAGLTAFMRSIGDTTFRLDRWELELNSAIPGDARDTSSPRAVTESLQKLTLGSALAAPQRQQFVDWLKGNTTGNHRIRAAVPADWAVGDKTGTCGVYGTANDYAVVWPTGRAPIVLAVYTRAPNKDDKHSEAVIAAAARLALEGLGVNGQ

SMILES	IC50 (SHV-5) [nM]	IC50 (KPC-2) [nM]	MIC (μg/mL) of Exemplary Compounds in presence of fixed β-lactams: K. p. A-1797 KPC-2 VIM-4 [1]	IC50 (OXA-48) [nM]	MIC (μg/mL) of Exemplary Compounds in presence of fixed β-lactams: E. cl. 144200 p99 AmpC [2]	IC50 (VIM-2) [nM]	IC50 (AmpC) [nM]	MIC (μg/mL) of Exemplary Compounds in presence of fixed β-lactams: E. coli ESBL4 CTX-M-15 [3]	MIC (μg/mL) of Exemplary Compounds in presence of fixed β-lactams: K. p. 156319 KPC-3 [4]	MIC (μg/mL) of Exemplary Compounds in presence of fixed β-lactams: K. p. 11978 OXA-48 [5]	MIC (μg/mL) of Exemplary Compounds in presence of fixed β-lactams: P. aerug. 2775 VIM-2 [6]
O=C(Cn1cc(CO)nn1)N[C@H]1Cc2cccc(C(=O)O)c2OB1O [Example 1, (R)-2-hydroxy-3-(2-(4-(hydroxymethyl)-1H-1,2,3-triazol-1-yl)acetamido)-3,4-dihydro-2H-benzo[e][1,2]oxaborinine-8-carboxylic acid]	< 100	< 100	B (B represents an MIC between 1 and 16 μg/mL inclusive)	100 to 1000	C (C represents an MIC of <1 μg/mL)	1000 to 10000	< 100	C (C represents an MIC of <1 μg/mL)	B (B represents an MIC between 1 and 16 μg/mL inclusive)	B (B represents an MIC between 1 and 16 μg/mL inclusive)	B (B represents an MIC between 1 and 16 μg/mL inclusive)
NCc1cn(CC(=O)N[C@H]2Cc3cccc(C(=O)O)c3OB2O)nn1 [Example 2, (R)-3-(2-(4-(aminomethyl)-1H-1,2,3-triazol-1-yl)acetamido)-2-hydroxy-3,4-dihydro-2H-benzo[e][1,2]oxaborinine-8-carboxylic acid]	< 100	< 100	C (C represents an MIC of <1 μg/mL)	100 to 1000	C (C represents an MIC of <1 μg/mL)	< 100	< 100	C (C represents an MIC of <1 μg/mL)	C (C represents an MIC of <1 μg/mL)	B (B represents an MIC between 1 and 16 μg/mL inclusive)	C (C represents an MIC of <1 μg/mL)
N=C(N)NCc1cn(CC(=O)N[C@H]2Cc3cccc(C(=O)O)c3OB2O)nn1 [Example 3, (R)-3-(2-(4-(guanidinomethyl)-1H-1,2,3-triazol-1-yl)acetamido)-2-hydroxy-3,4-dihydro-2H-benzo[e][1,2]oxaborinine-8-carboxylic acid]	< 100	< 100	C (C represents an MIC of <1 μg/mL)	< 100	C (C represents an MIC of <1 μg/mL)	< 100	< 100	C (C represents an MIC of <1 μg/mL)	C (C represents an MIC of <1 μg/mL)	C (C represents an MIC of <1 μg/mL)	C (C represents an MIC of <1 μg/mL)
CC(C)NCc1cn(CC(=O)N[C@H]2Cc3cccc(C(=O)O)c3OB2O)nn1 [Example 4, (R)-2-hydroxy-3-(2-(4-((isopropylamino)methyl)-1H-1,2,3-triazol-1-yl)acetamido)-3,4-dihydro-2H-benzo[e][1,2]oxaborinine-8-carboxylic acid]	100 to 1000	100 to 1000	C (C represents an MIC of <1 μg/mL)	< 100	C (C represents an MIC of <1 μg/mL)	< 100	< 100	C (C represents an MIC of <1 μg/mL)	B (B represents an MIC between 1 and 16 μg/mL inclusive)	B (B represents an MIC between 1 and 16 μg/mL inclusive)	C (C represents an MIC of <1 μg/mL)
CC(C)NCCc1cn(CC(=O)N[C@H]2Cc3cccc(C(=O)O)c3OB2O)nn1 [Example 7, (R)-2-hydroxy-3-(2-(4-(2-(isopropylamino)ethyl)-1H-1,2,3-triazol-1-yl)acetamido)-3,4-dihydro-2H-benzo[e][1,2]oxaborinine-8-carboxylic acid]	100 to 1000	1000 to 10000	B (B represents an MIC between 1 and 16 μg/mL inclusive)	1000 to 10000	C (C represents an MIC of <1 μg/mL)	1000 to 10000	< 100	C (C represents an MIC of <1 μg/mL)	C (C represents an MIC of <1 μg/mL)	B (B represents an MIC between 1 and 16 μg/mL inclusive)	C (C represents an MIC of <1 μg/mL)
O=C(Cn1nnc(CO)c1CO)N[C@H]1Cc2cccc(C(=O)O)c2OB1O [Example 8, (R)-3-(2-(4,5-bis(hydroxymethyl)-1H-1,2,3-triazol-1-yl)acetamido)-2-hydroxy-3,4-dihydro-2H-benzo[e][1,2]oxaborinine-8-carboxylic acid]	< 100	100 to 1000	B (B represents an MIC between 1 and 16 μg/mL inclusive)	100 to 1000	C (C represents an MIC of <1 μg/mL)	1000 to 10000	1000 to 10000	C (C represents an MIC of <1 μg/mL)	B (B represents an MIC between 1 and 16 μg/mL inclusive)	B (B represents an MIC between 1 and 16 μg/mL inclusive)	B (B represents an MIC between 1 and 16 μg/mL inclusive)
